Laboratory results taken from patent publication US11718613B2, “N-(phenylsulfonyl)benzamides and related compounds as Bcl-2 inhibitors” (THE REGENTS OF THE UNIVERSITY OF MICHIGAN, priority 2016, dated 2023).
Read-outs that look alike come from different tables or passages of the source. Values belong to the compound of their own block, whether it stands above or below them.

How the values were obtained:
RS4;11 cells = assay: RS4;11 cell viability (CCK-8) assay; assay type: cell-based, human; settings: 4 days, read-out: RS4;11 IC50 (Bcl-2 dependent)
Method: RS4;11 cells were obtained from American Type Culture Collection (ATCC). They were used within three months of thawing fresh vials. Cells were maintained in the recommended culture medium with 10% FBS at 37° C. and an atmosphere of 5% CO2.
The effect of representative Compounds of the Disclosure on cell viability was determined using Cell Counting Kit-8 (CCK-8) assay (Dojindo, Rockville, Md.) according to the manufacturer's instructions. 200 μL of a RS4;11 cell suspension (10000 cells/well) in culture medium were seeded into 96-well plates and cultured overnight. Each tested compound was serially diluted in culture medium, and 20 μL of the compound dilution was added to the corresponding well of the cell plate. After the addition of the tested compound, the cells were incubated at 37° C. in an atmosphere of 5% CO2 for 4 days. At the end of 4 days, 10 μL of CCK-8 solution was added to each well of the plate and incubated for 1-4 hours. The plates were read at 450 nm on the microplate spectrophotometer (Epoch2, BioTek). The readings were normalized to the vehicle cells, and the IC50 was calculated by nonlinear regression analysis using GraphPad Prism 5 software.

[1] = tested on: RS4;11 leukemia xenograft; assay: RS4;11 leukemia xenograft model; assay type: in vivo; settings: oral gavage, nude mice
Method: The antitumor activity of Cpd. No. 6 (compound 6) was also studied in the RS4;11 leukemia xenograft model. Human RS4;11 tumor cells were injected into nude mice and treatment started on day 11 when the tumor size reached approximately 100 mm^3. Cpd. No. 6 was administered via oral gavage at indicated doses and schedules. Cpd.

Bcl-2 = Bcl-2 (Homo sapiens (Human), UniProt P10415); assay: Fluorescence polarization competitive binding assay, Bcl-2; settings: FP competition with Flu-BIM probe; read-out: Inhibitory activity IC50 Bcl-2
Method: (§1) Fluorescence polarization values were measured using the Infinite M-1000 plate reader (Tecan U.S., Research Triangle Park, N.C.) in Microfluor 1 96-well, black, round-bottom plates (Thermo Scientific). […] Plates were mixed and incubated at room temperature for 1 hour with gentle shaking to assure equilibrium. […] Equilibrium dissociation constants (Kd) were then calculated by fitting the sigmoidal dose-dependent FP increases as a function of protein concentrations using Graphpad Prism 5.0 software (Graphpad Software, San Diego, Calif.).
(§2) Mixtures of 5 μl of the tested inhibitors in DMSO and 120 μl of pre-incubated protein/probe complexes in the assay buffer were added into assay plates and incubated at room temperature for 2 hours with gentle shaking. […] FP values were measured as described above. IC50 values were determined by nonlinear regression fitting of the competition curves.

Bcl-xL = Bcl-xL (Homo sapiens (Human), UniProt Q07817); assay: Fluorescence polarization competitive binding assay, Bcl-xL; settings: FP competition with Flu-BAK probe; read-out: Inhibitory activity IC50 Bcl-xL
Method: as §1, §2

Mcl-1 = Mcl-1 (Homo sapiens (Human), UniProt Q07820); assay: Fluorescence polarization competitive binding assay, Mcl-1; settings: FP competition with Flu-BID probe; read-out: Inhibitory activity IC50 Mcl-1
Sequence of Mcl-1 (Q07820 whole entry): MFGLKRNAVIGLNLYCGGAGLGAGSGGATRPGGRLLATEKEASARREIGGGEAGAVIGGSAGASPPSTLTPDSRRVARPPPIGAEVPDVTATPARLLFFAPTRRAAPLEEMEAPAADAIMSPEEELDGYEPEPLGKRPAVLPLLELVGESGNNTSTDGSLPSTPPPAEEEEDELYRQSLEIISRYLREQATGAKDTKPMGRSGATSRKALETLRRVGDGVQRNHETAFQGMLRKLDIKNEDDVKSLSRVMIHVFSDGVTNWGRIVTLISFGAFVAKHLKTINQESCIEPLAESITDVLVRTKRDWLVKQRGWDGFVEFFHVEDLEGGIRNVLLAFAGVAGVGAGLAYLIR
Method: as §1, §2

Sequence of Bcl-2 (P10415 whole entry): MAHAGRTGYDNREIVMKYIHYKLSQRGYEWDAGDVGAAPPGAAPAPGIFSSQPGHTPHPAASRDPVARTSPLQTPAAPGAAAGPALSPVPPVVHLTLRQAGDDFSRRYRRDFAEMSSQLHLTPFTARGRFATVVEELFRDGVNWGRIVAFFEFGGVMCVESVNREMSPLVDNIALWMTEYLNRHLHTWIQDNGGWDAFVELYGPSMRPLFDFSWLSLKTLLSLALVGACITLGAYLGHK
Sequence of Bcl-xL (Q07817 whole entry): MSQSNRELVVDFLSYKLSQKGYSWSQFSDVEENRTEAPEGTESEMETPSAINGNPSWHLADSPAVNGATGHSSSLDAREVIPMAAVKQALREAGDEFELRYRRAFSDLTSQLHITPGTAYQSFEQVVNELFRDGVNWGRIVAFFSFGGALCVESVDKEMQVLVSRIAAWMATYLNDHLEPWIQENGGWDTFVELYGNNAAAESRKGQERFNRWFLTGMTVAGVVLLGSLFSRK

IC50 (RS4;11 cells): 22 nM
Compound: (R)-N-((4-(((1,4-dioxan-2-yl)methyl)amino)-3- nitrophenyl)sulfonyl)-2-((1H-pyrrolo[2,3- b]pyridin-5-yl)oxy)-4-(1-((6-(4-chlorophenyl)-2- oxaspiro[3.5]non-6-en-7-yl)methyl)-1,2,3,6- tetrahydropyridin-4-yl)benzamide [Cpd. No. 5]

IC50 (Mcl-1): > 5000 nM
IC50 (RS4;11 cells): 3.7 nM
Compound: (R)-N-((4-(((1,4-dioxan-2-yl)methyl)amino)-3- nitrophenyl)sulfonyl)-2-((1H-pyrrolo[2,3- b]pyridin-5-yl)oxy)-4-(4-((6-(4-chlorophenyl)-2- oxaspiro[3.5]non-6-en-7-yl)methyl)piperazin-1- yl)benzamide [compound 8]

Further lines, the compound ahead of its results:

Compound: 2-((1H-pyrrolo[2,3-b]pyridin-5-yl)oxy)-4-(1-((6- (4-chlorophenyl)-2-oxaspiro[3.5]non-6-en-7- yl)methyl)-1,2,3,6-tetrahydropyridin-4-yl)-N-((3- nitro-4-(((tetrahydro-2H-pyran-4- yl)methyl)amino)phenyl)sulfonyl)benzamide [compound 9]
IC50 (RS4;11 cells): 28 nM

Compound: O=C(NS(=O)(=O)c1ccc(NC[C@H]2COCCO2)c([N+](=O)[O-])c1)c1ccc(N2CCN(CC3=C(c4ccc(Cl)cc4)CC4(CCC4)CC3)CC2)cc1Oc1cnc2[nH]ccc2c1 [Cpd. No. 6, (S)-N-((4-(((1,4-dioxan-2-yl)methyl)amino)-3-nitrophenyl)sulfonyl)-2-((1H-pyrrolo[2,3-b]pyridin-5-yl)oxy)-4-(4-((6-(4-chlorophenyl)spiro[3.5]non-6-en-7-yl)methyl)piperazin-1-yl)benzamide]
antitumor activity (tumor growth) ([1]; FIG. 3): inhibits tumor growth
mouse weight ([1]; FIG. 4): does not cause weight loss in mice

Compound: O=C(NS(=O)(=O)C1=CC2C(C=NN2CC2CCOCC2)C([N+](=O)[O-])=C1)c1ccc(N2CCN(CC3=C(c4ccc(Cl)cc4)CC4(CCC4)CC3)CC2)cc1Oc1cnc2[nH]ccc2c1 (stereo not drawn) [compound 62, 2-((1H-pyrrolo[2,3-b]pyridin-5-yl)oxy)-4-(4-((6-(4-chlorophenyl)spiro[3.5]non-6-en-7-yl)methyl)piperazin-1-yl)-N-((4-nitro-1-((tetrahydro-2H-pyran-4-yl)methyl)-3a,7a-dihydro-1H-indazol-6-yl)sulfonyl)benzamide]
IC50 (Bcl-2): 1.6 nM
IC50 (Bcl-xL): 4 nM
IC50 (RS4;11 cells; Homo sapiens, RS4-11, 96 h): 46 nM
